Here are results for 18 molecules from patent publication US20190031618A1, “BENZIMIDAZOLE DERIVATIVES USEFUL AS CB-1 INVERSE AGONISTS” (Janssen Pharmaceutica NV, priority 2015, published 2019).

The target of data set [1] is Human CB2R (Cannabinoid receptor 2) (Homo sapiens, UniProt P34972). Put plainly: CB-2 in vitro cAMP (HTRF) assay. The data set is classed as cell-based. The note with it: HEK cells, cAMP HTRF, 250 nM forskolin; mean where tested more than once; read-out: CB2 HEK_cAMP EC50. An outline of the steps: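 Competitive HTRF read-out (d2-labelled cAMP vs cryptate antibody) quantifies cAMP in stably transfected HEK-293 cells, seeded the day before at 4E5 cells/mL. Stimulation buffer: HBSS, 5 mM HEPES, 0.1% BSA, 0.5 mM IBMX; forskolin prepared at 1.5 μM in buffer; compounds serially diluted 1/3 in DMSO.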
Chain of Human CB2R (Cannabinoid receptor 2) (P34972 whole entry): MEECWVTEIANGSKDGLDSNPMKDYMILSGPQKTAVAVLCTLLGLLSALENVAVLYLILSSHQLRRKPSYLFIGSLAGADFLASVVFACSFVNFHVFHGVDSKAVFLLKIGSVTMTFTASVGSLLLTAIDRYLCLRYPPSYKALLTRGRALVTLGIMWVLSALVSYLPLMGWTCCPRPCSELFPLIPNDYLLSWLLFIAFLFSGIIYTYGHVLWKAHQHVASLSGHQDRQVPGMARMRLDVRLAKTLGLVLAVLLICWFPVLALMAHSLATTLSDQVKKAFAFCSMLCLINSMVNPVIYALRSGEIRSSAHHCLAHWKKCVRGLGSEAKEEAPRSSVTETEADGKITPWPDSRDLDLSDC

The nature of data set [2]: Mouse Fast PK/BBB: plasma and brain concentration. The data set is classed as in vivo, Male C57bl/6j mice. As to conditions: mice; for concentration at 4 h / concentration at 1 h: male, C57bl/6j, mouse; for concentration at 4 h / Brain Mean Conc. ± Std. Dev: 4 hr. On the procedure:
Male Sprague Dawley rats are ordered from Charles River (225-250 gm upon arrival). They are fed standard chow diet (Purina 5001) and housed 2 per cage. Male C57bl/6j mice are ordered from Charles River at 22-25 g and housed 3 per cage. They are fed standard chow (Purina 5001). All animals are housed in a temperature-controlled room with 12-hour light/dark cycle. Animals are given food and water ad libitum, except as noted.
Test compounds are administered by oral gavage (5 ml kg^−1 or 10 ml kg^−1).
Male C57bl/6j mice were dosed with test compounds at 20 or 30 mg/kg. Plasma was collected via retro-orbital bleeding at 1 hr and 4 hrs after dosing. Whole brain without cerebellum was collected at 4 hrs after dosing. Wet brain weight was recorded before freezing. Brains were homogenized in saline and sent for analysis for determination of concentration of test compound.
Representative compounds of formula (I) of the present invention were tested according to the procedure described above, with results as listed in Table BIO-2 below.

Data set [3] in a line: Mouse Fast PK/BBB: plasma and brain concentration. The data set is classed as in vivo, Male C57bl/6j mice. The note with it: mice; for concentration at 1 h: male, C57bl/6j, mouse, brain, read-out: Brain Mean Conc. ± Std. Dev; for Brain Mean Conc. ± Std. Dev: 1 hr.
The mark [4] stands for this setting: brain (whole brain without cerebellum), dose 20 mg/kg oral, read-out: Brain Mean Conc. ± Std. Dev.
Where [5] appears, read: plasma, dose 20 mg/kg oral, read-out: Plasma Mean Conc. ± Std. Dev.
The mark [6] stands for this setting: brain (whole brain without cerebellum), dose 30 mg/kg oral, read-out: Brain Mean Conc. ± Std. Dev.
[7] abbreviates: plasma, dose 30 mg/kg oral, read-out: Plasma Mean Conc. ± Std. Dev.

The EC50 is the concentration that produces a half-maximal response.

Read-outs that look alike come from different tables or passages of the source.

In the case of `CCc1nc2ccc(C(c3ccc(Cl)cc3)c3nccs3)cc2n1C1CCN(S(=O)(=O)C(F)(F)F)CC1` (stereo not drawn) [Example 400], in data set [1], the EC50 was more than 10 µM. Moreover, the concentration at 4 h in data set [2] (setting [4]) is 292 ± 61 ng/mL; in data set [2] (setting [5]), 947 ± 191 ng/mL. The values for the concentration at 1 h in data set [2] (setting [5]) and in data set [3] (dose 20 mg/kg oral) were 1550 ± 65.7 ng/mL and 362 ± 36.9 ng/mL, respectively.
As to `O=C(O)c1cccc(CN2CCC(n3c(C4CC4)nc4ccc(C(c5ccc(Cl)cc5)c5ccc(Cl)cc5)cc43)CC2)c1` [Example 148], the EC50 in data set [1] was 4.93 µM. Moreover, the concentration at 4 h in data set [2] (setting [6]) was determined as 417 ± 50 ng/mL; in data set [2] (setting [7]), 7750 ± 3100 ng/mL. For the same molecule, the concentration at 1 h in data set [2] (setting [7]) was 13500 ± 273 ng/mL; in data set [3] (dose 30 mg/kg oral), 334 ± 108 ng/mL.
Turning to `O=C(O)c1csc(S(=O)(=O)N2CCC(n3c(C4CC4)nc4ccc(C(c5ccc(Cl)cc5)c5ccc(Cl)cc5)cc43)CC2)c1` [Example 221], the EC50 in data set [1] is 3.3 µM. In data set [2] (setting [5]), the concentration at 1 h was found to be 160 ± 69.7 ng/mL. Further, the concentration at 4 h in data set [2] (setting [5]) is 33.8 ± 11.2 ng/mL. The “Brain Mean Conc. ± Std. Dev” value in data set [2] (dose 20 mg/kg oral) and in data set [3] (dose 20 mg/kg oral) was “BLOQ ± NA” in each case.
For `O=C(O)c1ccc(CN2CCC(n3c(C4CC4)nc4ccc(C(c5ccc(Cl)cc5)c5ccc(Cl)cc5)cc43)CC2)nc1` [Example 124], the EC50 in data set [1] was more than 10 µM. In data set [2] (setting [7]), the concentration at 1 h was 2020 ± 555 ng/mL and the concentration at 4 h is 297 ± 107 ng/mL. The “Brain Mean Conc. ± Std. Dev” value in data set [2] (dose 30 mg/kg oral) is reported as “BLOQ ± NA”. Further, the “Brain Mean Conc. ± Std. Dev” value in data set [3] (dose 30 mg/kg oral) was “BLOQ ± NA”.
As to `CCc1nc2ccc(C(c3ccc(Cl)cc3)c3ccc(Cl)cc3)cc2n1CC1CCN(S(=O)(=O)C(F)(F)F)CC1` [Example 315], the EC50 in data set [1] was determined as 5.4 µM. The concentration at 4 h in data set [2] (setting [4]) came out at 48.4 ± 0.4 ng/mL; in data set [2] (setting [5]) it was 785 ± 191 ng/mL. Also, the results for the concentration at 1 h in data set [2] (setting [5]) and in data set [3] (dose 20 mg/kg oral) were 2870 ± 441 ng/mL and 33.8 ± 5 ng/mL, respectively.
Turning to `O=C(O)c1cc(F)cc(CN2CCC(n3c(C4CC4)nc4ccc(C(c5ccc(Cl)cc5)c5ccc(Cl)cc5)cc43)CC2)c1` [Example 89], the EC50 in data set [1] came to 7.9 µM. Moreover, the concentration at 4 h in data set [2] (setting [6]) is 129 ± 33.2 ng/mL; in data set [2] (setting [7]), 4430 ± 227 ng/mL. The values for the concentration at 1 h in data set [2] (setting [7]) and in data set [3] (dose 30 mg/kg oral) were 7190 ± 488 ng/mL and 92.6 ± 20.4 ng/mL, respectively.
Consider `O=S(=O)(N1CCC(Cn2c(C3CC3)nc3ccc(C(c4ccc(Cl)cc4)c4ccc(Cl)cc4)cc32)CC1)C(F)(F)F` [Example 316], for which, in data set [1], the EC50 is 3.86 µM. The concentration at 4 h in data set [2] (setting [4]) worked out at 30.2 ± 5.2 ng/mL; in data set [2] (setting [5]), 247 ± 36 ng/mL. Besides, the results for the concentration at 1 h in data set [2] (setting [5]) and in data set [3] (dose 20 mg/kg oral) were 3980 ± 448 ng/mL and 22.9 ± 2.7 ng/mL, respectively.
As for `O=C(O)c1ccc(S(=O)(=O)N2CCC(n3c(C4CC4)nc4ccc(C(c5ccc(Cl)cc5)c5ccc(Cl)cc5)cc43)CC2)o1` [Example 232], in data set [1], the EC50 was 8.86 µM. In data set [2] (setting [7]), the concentration at 1 h was found to be 81.9 ± 22.7 ng/mL. Moreover, the concentration at 4 h in data set [2] (setting [7]) worked out at 7.11 ± 6.55 ng/mL. The “Brain Mean Conc. ± Std. Dev” value in data set [2] (dose 30 mg/kg oral) and in data set [3] (dose 30 mg/kg oral) was “BLOQ ± NA” in each case.
In the case of `CCc1nc2ccc(C(c3ccc(Cl)cc3)c3ccc(Cl)cc3)cc2n1C1CCN(S(=O)(=O)C(F)(F)F)CC1` [Example 328], in data set [1], the EC50 is more than 14 µM. The concentration at 4 h in data set [2] (setting [4]) worked out at 99.3 ± 13.3 ng/mL; in data set [2] (setting [5]), 1600 ± 109 ng/mL. In addition, the concentration at 1 h in data set [2] (setting [5]) turned out to be 2640 ± 337 ng/mL; in data set [3] (dose 20 mg/kg oral) it was 39.1 ± 1.95 ng/mL.
As for `O=S(=O)(c1cccc(O)c1)N1CCC(n2c(C3CC3)nc3ccc(C(c4ccc(Cl)cc4)c4ccc(Cl)cc4)cc32)CC1` [Example 259], the EC50 in data set [1] is more than 10 µM. Further, in data set [2] (setting [5]), the concentration at 1 h came out at 1420 ± 489 ng/mL and the concentration at 4 h was 436 ± 83 ng/mL. The “Brain Mean Conc. ± Std. Dev” value in data set [2] (dose 20 mg/kg oral) is “BLOQ ± NA”. For the same molecule, in data set [3] (dose 20 mg/kg oral), the “Brain Mean Conc. ± Std. Dev” value is listed as “BLOQ ± NA”.
For the molecule `O=C(O)c1ccc(F)c(CN2CCC(n3c(C4CC4)nc4ccc(C(c5ccc(Cl)cc5)c5ccc(Cl)cc5)cc43)CC2)c1` [Example 92], in data set [1], the EC50 came out at 5.19 µM. In addition, the results for the concentration at 4 h in data set [2] (setting [6]) and in data set [2] (setting [7]) were 89.2 ± 27.7 ng/mL and 5190 ± 277 ng/mL, respectively. Further, the concentration at 1 h stood at 11400 ± 2020 ng/mL in data set [2] (setting [7]) and 72.4 ± 11.1 ng/mL in data set [3] (dose 30 mg/kg oral).
Turning to `O=C(O)c1ccc(CN2CCC(n3c(C4CC4)nc4ccc(C(c5ccc(Cl)cc5)c5ccc(Cl)cc5)cc43)CC2)o1` [Example 129], in data set [1], the EC50 is more than 10 µM. Besides, in data set [2] (setting [7]), the concentration at 1 h came to 1370 ± 749 ng/mL and the concentration at 4 h was determined as 84.6 ± 62.9 ng/mL. Also, the “Brain Mean Conc. ± Std. Dev” value in data set [2] (dose 30 mg/kg oral) is “BLOQ ± NA”. Moreover, the “Brain Mean Conc. ± Std. Dev” value in data set [3] (dose 30 mg/kg oral) was “BLOQ ± NA”.
Regarding `O=S(=O)(N1CCC(n2c(C3CCC3)nc3ccc(C(c4ccc(Cl)cc4)c4ccc(Cl)cc4)cc32)CC1)C(F)(F)F` [Example 318], the EC50 in data set [1] is more than 10 µM. Moreover, the concentration at 4 h in data set [2] (setting [4]) is 69.4 ± 4.4 ng/mL; in data set [2] (setting [5]) it was 2130 ± 245 ng/mL. In addition, the concentration at 1 h in data set [2] (setting [5]) was 5880 ± 1290 ng/mL; in data set [3] (dose 20 mg/kg oral), 57.8 ± 14.8 ng/mL.
Taken in the same sequence, the figures for `COc1ccc(C(c2ccc(OC)cc2)c2ccc3nc(C4CCC4)n(C4CCN(S(=O)(=O)C(F)(F)F)CC4)c3c2)cc1` [Example 320] were more than 10 µM, 167 ± 9.4 ng/mL, 1610 ± 207 ng/mL, 2900 ± 245 ng/mL and 122 ± 18.1 ng/mL.
With `O=C(O)c1cccc(CN2CCC(n3c(C4CC4)nc4ccc(C(c5ccc(Cl)cc5)c5ccc(Cl)cc5)cc43)CC2)n1` [Example 125], the EC50 in data set [1] was 9.9 µM. Besides, in data set [2] (setting [7]), the concentration at 1 h turned out to be 4490 ± 1010 ng/mL and the concentration at 4 h was determined as 390 ± 157 ng/mL. Also, in data set [2] (dose 30 mg/kg oral), the “Brain Mean Conc. ± Std. Dev” value is listed as “BLOQ ± NA”. Further, the “Brain Mean Conc. ± Std. Dev” value in data set [3] (dose 30 mg/kg oral) is reported as “BLOQ ± NA”.
As for `O=S(=O)(N1CCC(n2c(C3CC3)nc3ccc(C(c4ccc(Cl)cc4)c4ccc(Cl)cc4)cc32)CC1)C(F)(F)F` [Example 335], the EC50 in data set [1] is more than 10 µM. The concentration at 4 h in data set [2] (setting [4]) came to 104 ± 19 ng/mL; in data set [2] (setting [5]), 2260 ± 822 ng/mL. For the same molecule, the concentration at 1 h worked out at 3940 ± 480 ng/mL in data set [2] (setting [5]) and 53.3 ± 14 ng/mL in data set [3] (dose 20 mg/kg oral).
For `O=C(O)c1cccc(S(=O)(=O)N2CCC(n3c(C4CC4)nc4ccc(C(c5ccc(Cl)cc5)c5ccc(Cl)cc5)cc43)CC2)c1` [Example 242], the EC50 in data set [1] came out at 5.69 µM. Moreover, in data set [2] (setting [5]), the concentration at 1 h turned out to be 789 ng/mL and the concentration at 4 h was 62.1 ± 20 ng/mL. Besides, in data set [2] (dose 20 mg/kg oral), the “Brain Mean Conc. ± Std. Dev” value was “BLOQ ± NA”. Moreover, in data set [3] (dose 20 mg/kg oral), the “Brain Mean Conc. ± Std. Dev” value is “BLOQ ± NA”.
Regarding `O=C(O)c1ccc(S(=O)(=O)N2CCC(n3c(C4CC4)nc4ccc(C(c5ccc(Cl)cc5)c5ccc(Cl)cc5)cc43)CC2)cc1` [Example 276], in data set [1], the 50% effective concentration (EC50) was 2.61 µM. Further, in data set [2] (setting [5]), the concentration at 1 h came to 227 ± 67.2 ng/mL and the concentration at 4 h was found to be 27.7 ± 13.1 ng/mL. Also, the “Brain Mean Conc. ± Std. Dev” value in data set [2] (dose 20 mg/kg oral) is listed as “BLOQ ± NA”. The “Brain Mean Conc. ± Std. Dev” value in data set [3] (dose 20 mg/kg oral) was “BLOQ ± NA”.
